Laboratory results published in ChEMBL document CHEMBL4004838, “Design and synthesis of novel phenyl -1, 4-beta-carboline-hybrid molecules as potential anticancer agents” (Eur J Med Chem, 2017).

Tests used:
Assay type in all cases: functional
U-251 = experiment: Growth inhibition of human U251 cells assessed as cell growth at 10^-5 M incubated for 48 hrs by sulforhodamine B assay relative to control; conditions: U-251, 48 h, read-out: Activity
MDA-MB-468 = experiment: Growth inhibition of human MDA-MB-468 cells assessed as cell growth at 10^-5 M incubated for 48 hrs by sulforhodamine B assay relative to control; conditions: MDA-MB-468, 48 h, read-out: Activity
NCI-H226 = experiment: Growth inhibition of human NCI-H226 cells assessed as cell growth at 10^-5 M incubated for 48 hrs by sulforhodamine B assay relative to control; conditions: NCI-H226, 48 h, read-out: Activity
SNB-19 = experiment: Growth inhibition of human SNB19 cells assessed as cell growth at 10^-5 M incubated for 48 hrs by sulforhodamine B assay relative to control; conditions: SNB-19, 48 h, read-out: Activity
UACC-257 = experiment: Growth inhibition of human UACC257 cells assessed as cell growth at 10^-5 M incubated for 48 hrs by sulforhodamine B assay relative to control; conditions: UACC-257, 48 h, read-out: Activity
NCI/ADR-RES = experiment: Growth inhibition of human NCI-ADR-RES cells assessed as cell growth at 10^-5 M incubated for 48 hrs by sulforhodamine B assay relative to control; conditions: read-out: Activity
OVCAR-5 = experiment: Growth inhibition of human OVCAR5 cells assessed as cell growth at 10^-5 M incubated for 48 hrs by sulforhodamine B assay relative to control; conditions: OVCAR-5, 48 h, read-out: Activity
SW-620 [1] = experiment: Growth inhibition of human SW620 cells assessed as cell growth at 10^-5 M incubated for 48 hrs by sulforhodamine B assay relative to control; conditions: SW-620, 48 h, read-out: Activity
T47D = experiment: Growth inhibition of human T47D cells assessed as cell growth at 10^-5 M incubated for 48 hrs by sulforhodamine B assay relative to control; conditions: read-out: Activity
IGROV-1 = experiment: Growth inhibition of human IGROV1 cells assessed as cell growth at 10^-5 M incubated for 48 hrs by sulforhodamine B assay relative to control; conditions: IGROV-1, 48 h, read-out: Activity
HCT-15 = experiment: Growth inhibition of human HCT15 cells assessed as cell growth at 10^-5 M incubated for 48 hrs by sulforhodamine B assay relative to control; conditions: HCT-15, 48 h, read-out: Activity
RXF 393 = experiment: Growth inhibition of human RXF393 cells assessed as cell growth at 10^-5 M incubated for 48 hrs by sulforhodamine B assay relative to control; conditions: RXF 393, 48 h, read-out: Activity
HOP-92 = experiment: Growth inhibition of human HOP92 cells assessed as cell growth at 10^-5 M incubated for 48 hrs by sulforhodamine B assay relative to control; conditions: HOP-92, 48 h, read-out: Activity
RPMI-8226 = experiment: Growth inhibition of human RPMI8226 cells assessed as cell growth at 10^-5 M incubated for 48 hrs by sulforhodamine B assay relative to control; conditions: RPMI-8226, 48 h, read-out: Activity
EKVX = experiment: Growth inhibition of human EKVX cells assessed as cell growth at 10^-5 M incubated for 48 hrs by sulforhodamine B assay relative to control; conditions: read-out: Activity
ACHN = experiment: Growth inhibition of human ACHN cells assessed as cell growth at 10^-5 M incubated for 48 hrs by sulforhodamine B assay relative to control; conditions: read-out: Activity
NCI-H460 = experiment: Growth inhibition of human NCI-H460 cells assessed as cell growth at 10^-5 M incubated for 48 hrs by sulforhodamine B assay relative to control; conditions: NCI-H460, 48 h, read-out: Activity
OVCAR-8 = experiment: Growth inhibition of human OVCAR8 cells assessed as cell growth at 10^-5 M incubated for 48 hrs by sulforhodamine B assay relative to control; conditions: OVCAR-8, 48 h, read-out: Activity
UACC-62 = experiment: Growth inhibition of human UACC62 cells assessed as cell growth at 10^-5 M incubated for 48 hrs by sulforhodamine B assay relative to control; conditions: UACC-62, 48 h, read-out: Activity
Malme-3M [2] = experiment: Growth inhibition of human MALME-3M cells assessed as cell growth at 10^-5 M incubated for 48 hrs by sulforhodamine B assay relative to control; conditions: read-out: Activity
SK-OV-3 = experiment: Growth inhibition of human SKOV3 cells assessed as cell growth at 10^-5 M incubated for 48 hrs by sulforhodamine B assay relative to control; conditions: SK-OV-3, 48 h, read-out: Activity
SK-MEL-5 = experiment: Growth inhibition of human SK-MEL-5 cells assessed as cell growth at 10^-5 M incubated for 48 hrs by sulforhodamine B assay relative to control; conditions: SK-MEL-5, 48 h, read-out: Activity
MOLT-4 = experiment: Growth inhibition of human MOLT4 cells assessed as cell growth at 10^-5 M incubated for 48 hrs by sulforhodamine B assay relative to control; conditions: MOLT-4, 48 h, read-out: Activity
DU-145 = experiment: Growth inhibition of human DU145 cells assessed as cell growth at 10^-5 M incubated for 48 hrs by sulforhodamine B assay relative to control; conditions: DU-145, 48 h, read-out: Activity
NCI-H23 = experiment: Growth inhibition of human NCI-H23 cells assessed as cell growth at 10^-5 M incubated for 48 hrs by sulforhodamine B assay relative to control; conditions: NCI-H23, 48 h, read-out: Activity
OVCAR-3 = experiment: Growth inhibition of human OVCAR3 cells assessed as cell growth at 10^-5 M incubated for 48 hrs by sulforhodamine B assay relative to control; conditions: OVCAR-3, 48 h, read-out: Activity
K562 = experiment: Growth inhibition of human K562 cells assessed as cell growth at 0.1 uM incubated for 48 hrs by sulforhodamine B assay relative to control; conditions: K562, 48 h, read-out: Activity
HCC 2998 = experiment: Growth inhibition of human HCC2998 cells assessed as cell growth at 0.1 uM incubated for 48 hrs by sulforhodamine B assay relative to control; conditions: HCC 2998, 48 h, read-out: Activity
HOP-62 = experiment: Growth inhibition of human HOP62 cells incubated for 48 hrs by sulforhodamine B assay; conditions: HOP-62, 48 h
Malme-3M [3] = experiment: Growth inhibition of human MALME-3M cells assessed as cell growth at 0.01 uM incubated for 48 hrs by sulforhodamine B assay relative to control; conditions: read-out: Activity
SW-620 [4] = experiment: Growth inhibition of human SW620 cells assessed as cell growth at 1 uM incubated for 48 hrs by sulforhodamine B assay relative to control; conditions: SW-620, 48 h, read-out: Activity
CAKI-1 = experiment: Growth inhibition of human Caki1 cells assessed as cell growth at 10^-5 M incubated for 48 hrs by sulforhodamine B assay relative to control; conditions: CAKI-1, 48 h, read-out: Activity

Compound	growth at 10 µM (U-251) [%]	growth at 10 µM (MDA-MB-468) [%]	growth at 10 µM (NCI-H226) [%]	growth at 10 µM (SNB-19) [%]	growth at 10 µM (NCI/ADR-RES) [%]	growth at 10 µM (OVCAR-5) [%]	growth at 10 µM (SW-620 [1]) [%]	growth at 10 µM (T47D) [%]	growth at 10 µM (HCT-15) [%]	growth at 10 µM (RXF 393) [%]	growth at 10 µM (HOP-92) [%]	growth at 10 µM (RPMI-8226) [%]	growth at 10 µM (EKVX) [%]	growth at 10 µM (ACHN) [%]	growth at 10 µM (NCI-H460) [%]	growth at 10 µM (OVCAR-8) [%]	growth at 10 µM (SK-OV-3) [%]	growth at 10 µM (SK-MEL-5) [%]	growth at 10 µM (DU-145) [%]	growth at 10 µM (NCI-H23) [%]	further results
c1ccc2c(c1)[nH]c1c(-c3ccc(-c4nccc5c4[nH]c4ccccc45)cc3)nccc12	107	105	90.7	106	95.9	110	108	75.8	99.7	111	98.7	97.4	89.5	99.5	103	111	88	79	122	77.7	growth at 10 µM (UACC-257): 119%; growth at 10 µM (IGROV-1): 88.8%; growth at 10 µM (UACC-62): 105%; growth at 10 µM (Malme-3M [2]): 92.5%; growth at 10 µM (MOLT-4): 97%; growth at 10 µM (OVCAR-3): 101%
c1ccc2[nH]c(-c3ccc(-c4nccc5c4[nH]c4ccccc45)cc3)nc2c1	–	–	–	27 to 55.1	10 to 62.6	–	–	–	–	–	–	–	13 to 81.2	–	42.9	4 to 16.5	22 to 104	16 to 62.6	19 to 67.4	18 to 69.1	growth at 0.1 µM (K562): 108%; growth at 0.1 µM (HCC 2998): 95%; growth at 10 µM (IGROV-1): 25 to 94.5%; GI50 (HOP-62; read-out: GI50): 2.8 µM; LC50 (concentration killing 50% of cells) (HOP-62; read-out: LC50): 5.31 µM; GI50 (HOP-62; read-out: pGI50 (converted)): 2.82 µM; LC50 (concentration killing 50% of cells) (HOP-62; read-out: pLC50 (converted)): 53.7 µM; TGI (HOP-62; read-out: pTGI (converted)): 10.7 µM; growth at 0.01 µM (Malme-3M [3]): 93%; growth at 1 µM (SW-620 [4]): 96%
O=Cc1ccc(C2NCCc3c2[nH]c2ccccc32)cc1 (centres undefined)	95.3	88.7	78.2	100	107	100	88.8	92.3	101	99.6	87.2	101	89.6	95	100	105	88.2	93	110	87.1	growth at 10 µM (CAKI-1): 72.4%; growth at 10 µM (UACC-62): 81.2%; growth at 10 µM (Malme-3M [2]): 100%; growth at 10 µM (MOLT-4): 95.5%; growth at 10 µM (OVCAR-3): 99.7%
Cc1n[nH]c2c1C(c1ccc(C3NCCc4c3[nH]c3ccccc43)cc1)C(C#N)=C(N)O2 (centres undefined)	87.5	92.7	87	94.2	96.3	87.4	89.9	75.2	87.7	99.2	88.8	72.1	83.6	83.5	91.8	104	92	89.4	105	87.7	growth at 10 µM (CAKI-1): 63.2%; growth at 10 µM (UACC-62): 57.8%; growth at 10 µM (Malme-3M [2]): 77%; growth at 10 µM (MOLT-4): 81.1%; growth at 10 µM (OVCAR-3): 96.6%
Cc1ccc(S(=O)(=O)N2CCc3c([nH]c4ccccc34)C2c2ccc(-c3nc4ccccc4[nH]3)cc2)cc1 (centres undefined)	98	102	86.4	91.3	88.9	78.7	90.1	89.1	94.3	96.4	102	99.1	87.4	79.1	93	98.2	88.5	89.8	101	85.7	growth at 10 µM (CAKI-1): 73.5%; growth at 10 µM (UACC-257): 102%; growth at 10 µM (IGROV-1): 86.5%; growth at 10 µM (UACC-62): 65%; growth at 10 µM (Malme-3M [2]): 89.7%; growth at 10 µM (MOLT-4): 95.9%; growth at 10 µM (OVCAR-3): 93.5%
c1ccc2[nH]c(-c3ccc(C4NCCc5c4[nH]c4ccccc54)cc3)nc2c1 (centres undefined)	93.4	94.7	93.5	100	109	94.2	99.1	90.8	107	94.2	82.2	97.3	103	102	104	99.2	95.6	96.5	113	102	growth at 10 µM (CAKI-1): 77.5%; growth at 10 µM (UACC-62): 86.3%; growth at 10 µM (Malme-3M [2]): 90%; growth at 10 µM (MOLT-4): 107%; growth at 10 µM (OVCAR-3): 107%
c1ccc2c3c([nH]c2c1)C(c1ccc(C2NCCc4c2[nH]c2ccccc42)cc1)NCC3 (racemic)	–	–	–	–	–	–	–	–	–	–	–	–	–	–	–	-41.5	–	–	–	–	growth at 10 µM (CAKI-1): -51%; growth at 0.1 µM (K562): 114%; growth at 0.1 µM (HCC 2998): 81%; GI50 (HOP-62; read-out: GI50): 1.31 µM; TGI (HOP-62; read-out: TGI): 2.79 µM; GI50 (HOP-62; read-out: pGI50 (converted)): 1.32 µM; TGI (HOP-62; read-out: pTGI (converted)): 2.82 µM; growth at 0.01 µM (Malme-3M [3]): 89%; growth at 1 µM (SW-620 [4]): 86%
Cc1ccc(S(=O)(=O)N2CCc3c([nH]c4ccccc34)C2c2ccc(C=O)cc2)cc1 (centres undefined)	98	102	86.4	91.3	88.9	78.7	90.1	89.1	94.3	96.4	102	99.1	87.4	79.1	93	98.2	88.5	89.8	101	85.7	growth at 10 µM (CAKI-1): 73.5%; growth at 10 µM (UACC-257): 102%; growth at 10 µM (IGROV-1): 86.5%; growth at 10 µM (UACC-62): 65%; growth at 10 µM (Malme-3M [2]): 89.7%; growth at 10 µM (MOLT-4): 95.9%; growth at 10 µM (OVCAR-3): 93.5%
